# Laboratory results: patent EP0369388B1, “Hydroxy-1,2,3,4-tetrahydroaminoacridines, a process for their preparation and their use as medicaments” (HOECHST-ROUSSEL PHARMACEUTICALS INCORPORATED, priority 1988, dated 1990)
# Structures can show the parent of a compound that is named as a salt.
# Molecular target: acetylcholinesterase (Homo sapiens, UniProt P22303)
# Assay: biochemical
# Conditions: not given
# Protocol: The ability to inhibit acetylchlinesterase was determined by the photometric method of Ellman et al., Biochem. pharmacol.
# Chain of acetylcholinesterase (P22303 32-614): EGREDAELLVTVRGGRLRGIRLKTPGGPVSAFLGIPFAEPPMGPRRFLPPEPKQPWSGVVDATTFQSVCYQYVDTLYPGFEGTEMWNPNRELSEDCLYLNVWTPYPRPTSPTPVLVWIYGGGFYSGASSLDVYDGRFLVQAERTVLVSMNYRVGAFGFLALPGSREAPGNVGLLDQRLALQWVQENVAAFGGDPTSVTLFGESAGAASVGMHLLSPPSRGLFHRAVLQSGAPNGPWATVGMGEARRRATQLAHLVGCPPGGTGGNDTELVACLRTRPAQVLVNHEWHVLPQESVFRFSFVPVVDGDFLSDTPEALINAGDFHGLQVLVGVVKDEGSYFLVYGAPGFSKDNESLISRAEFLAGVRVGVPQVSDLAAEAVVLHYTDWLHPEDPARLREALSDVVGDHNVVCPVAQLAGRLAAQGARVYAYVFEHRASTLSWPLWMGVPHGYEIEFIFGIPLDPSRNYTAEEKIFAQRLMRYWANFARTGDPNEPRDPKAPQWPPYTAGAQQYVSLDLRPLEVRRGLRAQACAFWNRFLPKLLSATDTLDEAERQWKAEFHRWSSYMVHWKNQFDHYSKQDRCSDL
row,Compound,IC50
1,"Nc1c2c(nc3ccccc13)CCC(OCc1ccccc1)C2 (stereo not shown) [2-Benzyloxy-1,2,3,4-tetrahydro-9-acridinamine]",> 1000 µM
2,"CCCC(=O)OC1CCc2nc3ccccc3c(N)c2C1 (stereo not shown) [2-Butyryloxy-1,2,3,4-tetrahydro-9-acridinamine, fumarate]",4.8 µM
3,"CCCCCCCCCC(=O)OC1CCc2nc3ccccc3c(N)c2C1 (stereo not shown) [2-Decanoyloxy-1,2,3,4-tetrahydro-9-acridinamine, fumarate]",> 1000 µM
4,"CCCCCCCCCCCC(=O)OC1CCc2nc3ccccc3c(N)c2C1 (stereo not shown) [2-Lauroyloxy-1,2,3,4-tetrahydro-9-acridinamine]",160 µM
5,"CCCCCCCC(=O)OC1CCc2nc3ccccc3c(N)c2C1 (stereo not shown) [2-Octanoyloxy-1,2,3,4-tetrahydro-9-acridinamine, fumarate]",23 µM
6,"CCCCC(=O)OC1CCc2nc3ccccc3c(N)c2C1 (stereo not shown) [2-Valeryloxy-1,2,3,4-tetrahydro-9-acridinamine, fumarate]",12 µM
7,"Nc1c2c(nc3ccccc13)C(OCc1ccccc1)CCC2 (stereo not shown) [4-Benzyloxy-1,2,3,4-tetrahydro-9-acridinamine]",820 µM

# Same assay, conditions: Acetylcholinesterase Inhibition; read-out: IC50 (molar conc.)
row,Compound,IC50
1,"CC(=O)OC1CCc2nc3ccccc3c(N)c2C1 (stereo not shown) [2-Acetoxy-1,2,3,4-tetrahydro-9-acridinamine]",6.5 µM
2,"CCCCCCC(=O)OC1CCc2nc3ccccc3c(N)c2C1 (stereo not shown) [2-Heptanoyloxy-1,2,3,4-tetrahydro-9-acridinamine, fumarate]",31 µM
3,"CCCCCC(=O)OC1CCc2nc3ccccc3c(N)c2C1.O=C(O)/C=C/C(=O)O (stereo not shown) [2-Hexanoyloxy-1,2,3,4-tetrahydro-9-acridinamine, fumarate]",19 µM
4,"CN(C)C=Nc1c2c(nc3ccccc13)CCC(O)C2 (stereo not shown) [2-Hydroxy-N-(dimethylaminomethylene)-1,2,3,4-tetrahydro-9-acridinamine]",> 1000 µM
5,"CCCCCCCCC(=O)OC1CCc2nc3ccccc3c(N)c2C1 (stereo not shown) [2-Nonanoyloxy-1,2,3,4-tetrahydro-9-acridinamine, fumarate]",> 1000 µM
6,"Nc1c2c(nc3ccccc13)CCC(O)C2.O=C(O)/C=C\C(=O)O (stereo not shown) [9-Amino-1,2,3,4-tetrahydroacridin-2-ol, maleate]",5.3 µM
7,"Nc1c2c(nc3ccccc13)C(O)CCC2 (stereo not shown) [9-Amino-1,2,3,4-tetrahydroacridinamin-4-ol, hemifumarate]",1.9 µM

# System: mice
# Assay: Dark Avoidance Assay (reversal of scopolamine induced memory deficit)
# Type: in vivo
# Conditions: Dose 0.63 mg/kg of body weight, s.c; mice, retest after 24 hours
# Protocol: This utility can also be ascertained by determining the ability of these compounds to restore cholinergically deficient memory in the Dark Avoidance Assay. In this assay mice are tested for their ability to remember an unpleasant stimulus for a period of 24 hours. A mouse is placed in a chamber that contains a dark compartment; a strong incadescent light drives it to the dark compartment, where an electric shock is administered through metal plates on the floor. The animal is removed from the testing apparatus and tested again, 24 hours later, for the ability to remember the electric shock.
# If scopolamine, an anticholinergic that is known to cause memory impairment, is administered before an animal's initial exposure to the test chamber, the animal re-enters the dark compartment shortly after being placed in the test chamber 24 hours later. This effect of scopolamine is blocked by an active test compound, resulting in a greater interval before re-entry into the dark compartment.
# The results for an active compound are expressed as the percent of a group of animals in which the effect of scopolamine is blocked, as manifested by an increased interval between being placed in the test chamber and re-entering the dark compartment.
row,Compound,% of Animals with Scopolamine Induced Memory Deficit Reversal
1,"CCCCCC(=O)OC1CCc2nc3ccccc3c(N)c2C1.O=C(O)/C=C/C(=O)O (stereo not shown) [2-Hexanoyloxy-1,2,3,4-tetrahydro-9-acridinamine, fumarate]",25%

# Same assay, conditions: Dose 5.0 mg/kg of body weight, s.c; mice, retest after 24 hours
row,Compound,% of Animals with Scopolamine Induced Memory Deficit Reversal
1,"CC(=O)OC1CCc2nc3ccccc3c(N)c2C1 (stereo not shown) [2-Acetoxy-1,2,3,4-tetrahydro-9-acridinamine]",29%
2,"CCC(=O)OC1CCc2nc3ccccc3c(N)c2C1 (stereo not shown) [2-Propionyloxy-1,2,3,4-tetrahydro-9-acridinamine, fumarate hemihydrate]",13%
3,"Nc1c2c(nc3ccccc13)CCC(O)C2.O=C(O)/C=C\C(=O)O (stereo not shown) [9-Amino-1,2,3,4-tetrahydroacridin-2-ol, maleate]",20%

# Same assay, conditions: mouse, in vivo, 0.31 mg/kg
row,Compound,% of Animals with Scopolamine Induced Memory Deficit Reversal
1,"CNC(=O)Oc1ccc2c(c1)[C@]1(C)CCN(C)[C@@H]1N2C [Physostigmine, reference compound]",20%
